Experimental data reported in PubChem BioAssay (NCI).
“And” between values parts separate entries of the source, which are not always exact repeats. Identical values can stand only once.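 96-well plates; 48 h exposure; 5 concentrations. Endpoints by linear interpolation between flanking doses. Not reached: highest tested concentration assigned. Abbreviation: GI50, concentration required for 50% inhibition of growth. The concentration for full growth arrest is given as TGI.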

Tests used:
Test in all cases: growth of human tumour cells (NCI), 48 h
786-0 renal = tested on: 786-0 renal
IGROV1 ovarian = tested on: IGROV1 ovarian
KM20L2 colon = tested on: KM20L2 colon
MOLT-4 leukemia = tested on: MOLT-4 leukemia
NCI-H522 lung = tested on: NCI-H522 lung
RPMI-8226 leukemia = tested on: RPMI-8226 leukemia
UACC-62 melanoma = tested on: UACC-62 melanoma
UO-31 renal = tested on: UO-31 renal
DU-145 prostate = tested on: DU-145 prostate
DMS 114 small cell lung = tested on: DMS 114 small cell lung

| SMILES | TGI (786-0 renal) | TGI (IGROV1 ovarian) | TGI (KM20L2 colon) [µM] | TGI (MOLT-4 leukemia) | TGI (NCI-H522 lung) | TGI (RPMI-8226 leukemia) | TGI (UACC-62 melanoma) | TGI (UO-31 renal) | TGI (DU-145 prostate) | TGI (DMS 114 small cell lung) [µM] | GI50 (786-0 renal) | GI50 (DU-145 prostate) | GI50 (IGROV1 ovarian) | GI50 (MOLT-4 leukemia) | GI50 (NCI-H522 lung) | GI50 (RPMI-8226 leukemia) | GI50 (UACC-62 melanoma) | GI50 (UO-31 renal) |
| --- | --- | --- | --- | --- | --- | --- | --- | --- | --- | --- | --- | --- | --- | --- | --- | --- | --- | --- |
| CC(=O)OC12C(C)=C(C)C(=O)N1c1ccccc1N2C(C)=O (configuration not stated) | > 100 µM | > 100 µM | > 100 | > 100 µM | > 100 µM | > 100 µM | > 100 µM | > 100 µM | – | – | – | – | – | – | – | – | – | – |
| O=C1C2CCN(CC2)C1CN1CCOCC1 (configuration not stated) | 3.55 µM | 38.4 µM | 37 | 13.8 µM | 1.99 µM | 13.7 µM | 30.9 µM | 7.14 µM | 20.1 µM | – | – | – | – | – | – | – | – | – |
| CC(Oc1ccc2c(-c3ccc(Cl)cc3)cc(=O)oc2c1)C(=O)O (configuration not stated) | > 100 µM | > 100 µM | > 100 | > 100 µM | > 100 µM | – | > 100 µM | > 100 µM | – | – | – | – | – | – | – | – | – | – |
| COc1ccc(N2C(=O)C3CC(c4ccc(Br)cc4)c4c([nH]c5ccccc45)C3C2=O)cc1 (configuration not stated) | 4.45 µM | 26.2 µM | 27.3 | 29 µM | – | > 100 µM | 32.3 µM | 27.1 µM | – | 20.8 | – | – | – | – | – | – | – | – |
| CCCCCCCCCCCCSC(=S)c1c(C)[nH]n(-c2ccccc2)c1=O | > 50 µM | > 50 µM | 39.5 | 46.1 µM | – | > 50 µM | 25.9 µM | 38.9 µM | – | 28.4 | – | – | – | – | – | – | – | – |
| CSC(=O)C[C@@]12O[C@@H]([C@@H](C)C3CCC4[C@@H]5C(O)CC6=CC(=O)C=C[C@]6(C)C5CC[C@@]43C)C[C@](C)(O1)C(C)(C)O2 (some centres not stated) | 30.2 µM | 46.2 µM | – | – | 30 µM | 34.3 µM | 27 µM | 24.8 µM | – | 39.9 | – | – | – | – | – | – | – | – |
| COc1cc2nc(Nc3cccc(Cl)c3)nc(N)c2cc1OC | 3.73 µM | 25.4 µM | – | 11.4 µM | 26.7 µM | 5.34 µM | 25.7 µM | 20.9 µM | 22.8 µM | – | 1.85 µM | 6.74 µM | 11 µM | 2.78 µM | 8.44 µM | 2.11 µM | 13 µM | 6.66 µM |
| Cn1ncc(Cl)c1-c1cc(C(=O)N[C@H](CN)Cc2cccc(F)c2)sc1Cl | 1.85 µM and 4.12 µM | 2.65 µM and 4.18 µM | – | 3.13 µM and 3.51 µM | > 5.8 µM and 20.3 µM | 5.8 µM and 6.11 µM | > 5.59 µM and 11.6 µM | > 7.4 µM and 12.5 µM | > 10 µM and 19.4 µM | – | 0.0578 µM and 0.0899 µM | 2.28 µM and 5.86 µM | 0.0387 µM and 0.0478 µM | 0.196 µM and 0.123 µM | 1.41 µM and 6.34 µM | 1.65 µM and 2.06 µM | 1.07 µM and 1.46 µM | 0.844 µM and 1.51 µM |
| CCSC[C@@H]1C[C@](O)(c2ccc(Cl)cc2)[C@@H](c2ccc(Cl)cc2)O1 | 31.9 µM | 32.3 µM | – | 43.6 µM | 31.4 µM | 51.2 µM | 30.8 µM | 30.4 µM | 30 µM | – | 17 µM | 15 µM | 15.3 µM | 17.7 µM | 15.5 µM | 20.8 µM | 13.9 µM | 16.5 µM |
| COc1cnc2c(c1)C(=O)c1c-2n(CCCN2CCCC2)c(=O)c2cc([N+](=O)[O-])ccc12 | 0.152 µM | 1.36 µM | – | 0.0451 µM | 3.8 µM | 1.11 µM | 0.631 µM | 0.206 µM | 1.79 µM | – | 0.0266 µM | 0.0186 µM | 0.0187 µM | < 0.01 µM | 0.0607 µM | 0.0374 µM | 0.0153 µM | < 0.01 µM |
| Cc1cc2c(F)c(Oc3ncnc(Nc4ccc(N5C[C@@H](C)N[C@@H](C)C5)cc4)c3C#N)cc(F)c2[nH]1 | 3.64 µM | 6.91 µM | – | 5.44 µM | 4.54 µM | 4.33 µM | 4.89 µM | 3.39 µM | 11.1 µM | – | 1.62 µM | 3.31 µM | 2.48 µM | 1.67 µM | 2.14 µM | 1.72 µM | 2.37 µM | 1.1 µM |
| COc1cc2nc(N3CCCN(C)CC3)nc(NC3CCN(Cc4ccccc4)CC3)c2cc1OC | 5.2 µM | 25.3 µM | – | 6.25 µM | 4.22 µM | 6.18 µM | 3.56 µM | 3.2 µM | 9.38 µM | – | 1.84 µM | 2.86 µM | 7.33 µM | 1.8 µM | 2.02 µM | 2.31 µM | 1.89 µM | 1.69 µM |
| NC(=S)N/N=C/c1ccc(OC(=O)COc2cc(Cl)c(Cl)cc2Cl)cn1 | > 100 µM | > 100 µM | – | > 100 µM | 67.5 µM | > 100 µM | 22.4 µM | > 100 µM | 27.3 µM | – | 3.54 µM | 3.52 µM | 7.65 µM | 4.53 µM | 3.17 µM | 7.29 µM | 3.46 µM | 3.18 µM |
| CCOC(=O)c1ccc(-n2cnc(-c3ccc([N+](=O)[O-])cc3)c2)cc1 | > 100 µM | > 100 µM | – | > 100 µM | 36 µM | > 100 µM | > 100 µM | > 100 µM | > 100 µM | – | – | – | – | – | – | – | – | – |
| COc1nc(N)nc2c1ncn2C1CC(O)C(CO)O1 (configuration not stated) | > 100 µM | > 100 µM | – | > 100 µM | > 100 µM | > 100 µM | > 100 µM | > 100 µM | > 100 µM | – | – | – | – | – | – | – | – | – |
| CC(=O)O.CN1[CH-]N(Cc2ccc(C#N)cc2)c2ccccc21.[Ag+] | 36.7 µM | 46.7 µM | – | 68.2 µM | 82.4 µM | > 100 µM | 31 µM | 30.3 µM | 32.6 µM | – | 18.4 µM | 17.7 µM | 20.9 µM | 26.1 µM | 14.5 µM | 31.3 µM | 16.4 µM | 16.2 µM |
| CCC1=C(c2ccc(OC)cc2)C(C)(C)Oc2c1ccc(O)c2CN1CCCC1 | 20.2 µM | 23.9 µM | – | 6.53 µM | 3.96 µM | 2.45 µM | 3.86 µM | > 100 µM | > 100 µM | – | 4.02 µM | 3.77 µM | 3.84 µM | 2.18 µM | 1.97 µM | 0.721 µM | 1.81 µM | 2.19 µM |
| Cc1cccc(-c2nnc3s/c(=C\c4ccc(N(C)C)cc4)c(=O)n23)c1 | > 100 µM | > 100 µM | > 100 | > 100 µM | > 100 µM | > 100 µM | > 100 µM | > 100 µM | – | – | – | – | – | – | – | – | – | – |
| O=S(=O)(N=C1C(Cl)=C(Cl)C(=NS(=O)(=O)c2ccccc2)C(Cl)=C1Cl)c1ccccc1 | 44.1 µM | 40.7 µM | – | > 100 µM | 29.7 µM | > 100 µM | 38.4 µM | 48.9 µM | 60.9 µM | – | 22.7 µM | 18.5 µM | 18.7 µM | 27 µM | 11.1 µM | 23.9 µM | 13.3 µM | 18.8 µM |
| Cc1c(Cn2c(C)nc3c(C(=O)O)cc(N4CCOCC4)cc32)cccc1C(F)(F)F | > 100 µM | > 100 µM | – | > 100 µM | > 100 µM | > 100 µM | > 100 µM | > 67.6 µM | > 100 µM | – | 24.7 µM | > 92.9 µM | 40.2 µM | 56.6 µM | 89 µM | 64.8 µM | 21.1 µM | 3.46 µM |
| COc1cc(CCC[P+](c2ccccc2)(c2ccccc2)c2ccccc2)c(OC)c2c1OCO2 | 16.5 µM | 11.7 µM | – | 18.9 µM | 12.1 µM | 1.87 µM | 4.27 µM | 44.1 µM | 74.5 µM | – | 3.44 µM | 3.21 µM | 1 µM | 3.33 µM | 1.43 µM | 0.283 µM | 0.629 µM | 10.8 µM |
| CSc1cc([C@@H]2C[C@H]2c2ccc(Cl)cc2)on1 | 55.3 µM | > 100 µM | – | > 100 µM | 45.9 µM | 44.8 µM | 24.7 µM | > 100 µM | 42 µM | – | 15 µM | 19.6 µM | 14.8 µM | 28.6 µM | 6.91 µM | 22.7 µM | 11.3 µM | 21.6 µM |
| CSc1ccc(C2=NN(C(C)=O)C(c3ccc(-c4cc(Cl)c(Cl)cc4Cl)o3)C2)cc1 (configuration not stated) | 32.9 µM | 24.9 µM | – | 35.3 µM | 29.7 µM | 41 µM | 21.8 µM | 25.4 µM | 29 µM | – | 18.9 µM | 15.5 µM | 9.99 µM | 12.1 µM | 13.2 µM | 10.9 µM | 10.2 µM | 12.4 µM |
| CC1SC(c2ccccc2Cl)N(NC(=O)C(O)c2ccccc2)C1=O (configuration not stated) | > 100 µM | > 100 µM | – | > 100 µM | > 100 µM | > 100 µM | > 100 µM | > 100 µM | > 100 µM | – | > 100 µM | > 100 µM | 73.1 µM | 50.4 µM | 54.4 µM | 45 µM | 45 µM | 74.9 µM |
| CC1(C)N=C(N)N=C(N)N1c1ccc(CNC(=O)Nc2ccc(S(=O)(=O)F)c(Cl)c2)c(Cl)c1 | > 100 µM | > 100 µM | – | > 100 µM | 40.2 µM | > 100 µM | > 100 µM | > 100 µM | > 100 µM | – | 0.872 µM | 0.76 µM | 0.0805 µM | 0.954 µM | 0.624 µM | 1.43 µM | 0.303 µM | 53.7 µM |
